Results as given in patent US12215162B2, “BAFF-R targeted chimeric antigen receptor-modified T-cells and uses thereof” (CITY OF HOPE, priority 2016, dated 2025).

Legend:
[1] = test system: SP49-IR; conditions: 100 nM ibrutinib; cited from earlier work
[2] = test system: SP49; conditions: 100 nM ibrutinib; cited from earlier work
[3] = test system: RS4; 11 (acute lymphoblastic leukemia, ALL); assay: In vivo RS4;11 ALL tumor model, antibody treatment; parameters: species or system NSG mice; conditions: 200 μg antibody + NK-92-176V cells + IL-2 IV
From the text: FIG. 4A is a schematic showing treatment schedule following Day 0 tumor challenge with minimum lethal dose of tumors. Treatments were given by IV tail vein injections. FIGS. 4B and 4C are images showing chimeric antibodies targeting human BAFF-R elicited in vivo therapeutic effects against B-cell tumors. Bioluminescence images of mice challenged with luciferase-expressing tumors: JeKo-1 (MCL) (FIG. 4B) or RS4; 11 (ALL) (FIG. 4C). Experimental groups received treatment of chimeric BAFF-R mAbs (C55 or C90, as indicated). Control group mice received PBS, NK cells alone, or rituximab on the same schedule. Data are representative of three independent experiments.
(§1) In vivo studies. For tumor models, stable, luciferase-expressing tumors lines were established for bioluminescent imaging in mouse models. Briefly, a luciferase gene was introduced into tumor lines by a lentivirus gene delivery system (pLenti7.3/V5-DEST Gateway Vector Kit, Life Technologies, Carlsbad, CA). The minimum lethal dose per mouse was determined for each tumor cell line by dose titration. Tumor cells were injected intravenously (IV) and mice were monitored by in vivo bioluminescence imaging for minimum tumor dose to ensure engraftment. Minimum lethal tumor doses were 1×10^6 JeKo-1, 5×10^5 RS4; 11, 5×10^5 JeKo-1-CD20-KO, or 2.5×10^4 Z-138 cells. […]

[4] = test system: JeKo-1-CD20-KO; assay: In vivo JeKo-1-CD20-KO tumor model, antibody treatment; parameters: species or system NSG mice; conditions: Day 20
From the text: FIGS. 6A and 6B are images and FIG. 6C are graphs showing chimeric antibodies targeting human BAFF-R elicited in vivo therapeutic effects against drug resistant B-cell tumors. Bioluminescence images of mice challenged with luciferase-expressing tumors JeKo-1-CD20-KO cells (FIG. 6A) or ibrutinib-resistant Z-138 cells (FIG. 6B) followed by antibody treatments as in FIG. 4. Control group mice received PBS, NK cells alone, or rituximab on the same schedule. […] Tumor free rate and survival differences between experimental and all control groups were analyzed by log-rank test (** P<0.001). Data are representative of three independent experiments.
as §1

[5] = test system: RS4 acute lymphoblastic lymphoma; assay: Chromium release ADCC on RS4; format: cell-based, human; conditions: NK cells E:T 20:1, 6 hours
Protocol: FIGS. 21A and 21B are graphs showing humanized antibodies C90-4 and C90-5 analyzed for their specific cytotoxicity of various lymphoma lines. For FIG. 21A, JeKo-1, Z138, and RS4 were subjected to a chromium release assay with humanized antibodies C90-4 and C90-5. Antibodies were administered to the cell lines at concentrations between 0 to 5 μg/mL and incubated for 6 hours with NK cells at an E:T ratio of 20:1. The cell supernatants were analyzed for their chromium content. For FIG. 21B, LY-10, MEC-2, RL, and Raji lymphoma lines were subjected to a chromium release assay with humanized antibodies C90-4 and C90-5. Antibodies were administered to the cell lines at 5 μg/mL and incubated for 6 hours with NK cells at an E:T ratio of 20:1. The cell supernatants were analyzed for their chromium content.
The two variants were further assessed in their ability to initiate ADCC. The antibodies were administered in varying concentration to JeKo-1, Z138, and RS4 lines after a period of chromium uptake. The cells and antibodies were incubated with effector NK cells. The supernatant was analyzed 6 hours post treatment (FIG. 21A).

[6] = test system: JeKo-1-CD20-KO clone 25; assay: ADCC against rituximab-resistant JeKo-1-CD20-KO; format: cell-based, human; conditions: NK cells E:T 20:1
Protocol: FIGS. 5A, 5B and 5C are images or graphs showing chimeric BAFF-R antibodies induce ADCC on drug resistant lymphoma models in vitro. FIG. 5A is a scatterplot of FACS analysis showing CD20 binding on JeKo-1 cells following CRISPR/HDR knock-out of CD20 gene. CD20 expression on selected CD20−/−clone #25 compared to WT JeKo-1. ADCC effects measured by chromium-51 release after incubation with C55, C90, or rituximab and effectors NK cells (E:T=20:1). Percentage of cell specific lysis of target cells: rituximab-resistant JeKo-1-CD20-KO (FIG. 5B) and ibrutinib-resistant Z-138 and SP49-IR (FIG. 5C). All data are representative of two or more identical experiments. Data are shown as the mean±s.d. of triplicate samples. *P<0.05 compared with NK cells by two-tailed Student's t-test.
Cytotoxicity assays. Target cells (L cells, human tumor lines, primary patient samples) were labeled with chromium-51 (51Cr, Perkin Elmer, Waltham, MA) for a 51Cr release assay. Briefly, antibodies and effectors (NK cells or complement serum standard [Sigma Aldrich, St. Louis, MO]), were added to labeled target cells and incubated up to 18 hours. NK cells were enriched from PBMC (NK cell enrichment kit, Stemcell Technologies, Vancouver, Canada). 51Cr released into supernatant was detected with a Wizard Automatic Gamma Counter (Perkin Elmer).
Generation of JeKo-1-CD20-KO. […]

## C=CC(=O)N1CCC[C@@H](n2nc(-c3ccc(Oc4ccccc4)cc3)c3c(N)ncnc32)C1 [ibrutinib]
[1]
  viable cells: > 90%
[2]
  viable cells: ~5%

## rituximab [reference compound]
[3]
  tumor growth (bioluminescence): no inhibition
[4]
  tumor burden by bioluminescent imaging: substantial tumor burden
[5]
  activity (ADCC): not active
[6]
  sensitivity to antibody-mediated cytotoxicity: insensitive
